For 24 compounds, GI50 and IC50 results are on record in patent US11370779B2, “Pharmaceutical composition for preventing or treating acute myeloid leukemia or metastatic breast cancer” (PELEMED CO., LTD., priority 2017, dated 2022).

For one test, the system named is MV4;11 cells. Briefly: Cell viability, EZ-Cytox tetrazolium assay, MV4;11. Type of test: cell-based, human. Particulars: Homo sapiens, MV4-11, 72 hours; for GI50: read-out: GI50(nM) MV4;11; for IC50: Table 1. The protocol:
The cultured cells were incubated at 3° C. with 5% CO2.
(§1) Cell viability was assessed by a tetrazolium-based assay using the EZ-Cytox Cell Viability Assay kit (DaeilLab, Korea). Briefly, 2,000 to 15,000 cells were plated in 96-well plates in 100 μl of medium. The next day, the cells were treated with compounds together with dimethyl sulfoxide (DMSO) as a negative control. Three days (72 hours) after the drug addition, 15 μl of the EZ-Cytox kit reagent was added to each well of the 96-well plate and then incubated at 37° C. in a humidified CO2 incubator for 4 hours. After incubation, the optical density (OD) was measured at a wavelength of 450 nm using a Victor multilabel reader (Perkin Elmer, Waltham, Mass., USA).

The next test deals with MDA-MB-231. As to the kind of experiment: Cell viability, EZ-Cytox tetrazolium assay, MDA-MB-231. Type of test: cell-based, human. Conditions: Homo sapiens, MDA-MB-231; 72 hours. The protocol:
MDA-MB-231 (metastatic breast cancer, ATCC HTB-26), Jurkat (human acute T lymphocytic leukemia, ATCC TIB-152), and K-562 (human chronic myelogenous leukemia, ATCC CCL-243) cells were cultured in RPMI-1640 (Sigma Co.). MCF7 (human breast adenocarcinoma, ATCC HTB-22) and PC-3 (human prostate adenocarcinoma, ATCC CRL-1435) cells were cultured in DMEM (Sigma Co.) medium supplemented with 10% fetal bovine serum and 1% penicillin/streptomycin. The cultured cells were incubated at 3° C. with 5% CO2.
as §1, with “USA). The IC50 was calculated by nonlinear regression using Prism version 5.01 (GraphPad, La Jolla, Calif., USA).” for “USA).”

Where a name gives a salt, the structure may show the parent alone.

With `O=C1Nc2ccc(F)cc2/C1=C1/Nc2ccccc2/C1=N\OCCN1CCCCC1` [Compound 35, (2Z,3E)-5′-fluoro-3-((2-(piperidin-1-yl)ethoxy)imino)-[2,3′-biindolinylidene]-2′-one hydrochloride], the 50% growth inhibitory concentration (GI50) with MV4;11 cells is 263 nM; with MDA-MB-231 it was 805 nM.

As for `O=C1Nc2ccc(I)cc2/C1=C1/Nc2ccccc2/C1=N\OCCN1CCNCC1` [Compound 42, (2Z,3E)-5′-iodo-3-((2-(piperazin-1-yl)ethoxy)imino)-[2,3′-biindolinylidene]-2′-one dihydrochloride], the concentration for 50% growth inhibition (GI50) in the test with MV4;11 cells was 9 nM.

Turning to `CN1CCN(CCO/N=C2/C(=C3/C(=O)Nc4ccc([N+](=O)[O-])cc43)Nc3ccc(F)cc32)CC1` [Compound 18, (2Z,3E)-5-fluoro-3-((2-(4-methylpiperazin-1-yl)ethoxy)imino)-5′-nitro-[2,3′-biindolinylidene]-2′-one dihydrochloride], the GI50 was 118 nM in the test on MV4;11 cells and 69.7 nM with MDA-MB-231.

The compound `COC(=O)c1ccc2c(c1)/C(=C1/Nc3ccccc3/C1=N\OCCN1CCN(C)CC1)C(=O)N2` [Compound 5, Methyl (2Z,3E)-3-((2-(4-methylpiperazin-1-yl)ethoxy)imino)-2′-oxo-[2,3′-biindolinylidene]-5′-carboxylate dihydrochloride] returned an IC50 in the test with MV4;11 cells of 11 nM.

Turning to `O=C1Nc2ccc(Cl)cc2/C1=C1/Nc2ccccc2/C1=N\OCCN1CCNCC1` [Compound 38, (2Z,3E)-5′-chloro-3-((2-(piperazin-1-yl)ethoxy)imino)-[2,3′-biindolinylidene]-2′-one dihydrochloride], the GI50 in the test with MV4;11 cells turned out to be 11 nM.

In the case of `NC1CCN(CCO/N=C2/C(=C3/C(=O)Nc4ccc(F)cc43)Nc3ccc(F)cc32)CC1` [Compound 25, (2Z,3E)-3-((2-(4-aminopiperidin-1-yl)ethoxy)imino)-5,5′-difluoro-[2,3′-biindolinylidene]-2′-one dihydrochloride], the GI50 with MV4;11 cells was 85.7 nM; in the test with MDA-MB-231 it was > 1 nM.

Regarding `O=C1Nc2ccc([N+](=O)[O-])cc2/C1=C1/Nc2ccccc2/C1=N\OCCN1CCNCC1` [Compound 16, (2Z,3E)-5′-nitro-3-((2-(piperazin-1-yl)ethoxy)imino)-[2,3′-biindolinylidene]-2′-one dihydrochloride], the GI50 in the test with MV4;11 cells is 7.01 nM; with MDA-MB-231 it was 74.3 nM.

Take `CN1CCN(CCO/N=C2/C(=C3/C(=O)Nc4ccc(I)cc43)Nc3ccccc32)CC1` [Compound 43, (2Z,3E)-5′-iodo-3-((2-(4-methylpiperazin-1-yl)ethoxy)imino)-[2,3′-biindolinylidene]-2′-one dihydrochloride]: the concentration for 50% growth inhibition (GI50) in the test on MV4;11 cells worked out at 32 nM.

On to `O=C1Nc2ccc([N+](=O)[O-])cc2/C1=C1/Nc2ccc(F)cc2/C1=N\OCCN1CCNCC1` [Compound 17, (2Z,3E)-5-fluoro-5′-nitro-3-((2-(piperazin-1-yl)ethoxy)imino)-[2,3′-biindolinylidene]-2′-one dihydrochloride], for which the GI50 was 10.2 nM in the test with MV4;11 cells and 88.8 nM in the test on MDA-MB-231.

Take `COc1ccc2c(c1)/C(=C1/Nc3ccccc3/C1=N\OCCN1CCNCC1)C(=O)N2` [Compound 46, (2Z,3E)-5′-methoxy-3-((2-(piperazin-1-yl)ethoxy)imino)-[2,3′-biindolinylidene]-2′-one dihydrochloride]: the GI50 with MV4;11 cells turned out to be 17 nM.

Consider `NCCO/N=C1/C(=C2/C(=O)Nc3ccc([N+](=O)[O-])cc32)Nc2ccccc21` [Compound 15, (2Z,3E)-3-((2-aminoethoxy)imino)-5′-nitro-[2,3′-biindolinylidene]-2′-one hydrochloride], for which the concentration for 50% growth inhibition (GI50) with MDA-MB-231 is > 1 nM.

Consider `CN1CCN(CCO/N=C2/C(=C3/C(=O)Nc4ccccc43)Nc3ccccc32)CC1` [Compound 29, (2Z,3E)-3-((2-(4-methylpiperazin-1-yl)ethoxy)imino)-[2,3′-biindolinylidene]-2′-one dihydrochloride], for which the concentration for 50% growth inhibition (GI50) with MV4;11 cells was 54.8 nM; with MDA-MB-231, 483 nM.

As to `O=C1Nc2ccc(Br)cc2/C1=C1/Nc2ccccc2/C1=N\OCCN1CCNCC1` [Compound 40, (2Z,3E)-5′-bromo-3-((2-(piperazin-1-yl)ethoxy)imino)-[2,3′-biindolinylidene]-2′-one dihydrochloride], in the test with MV4;11 cells, the GI50 was 10 nM.

As to `O=C1Nc2ccc([N+](=O)[O-])cc2/C1=C1/Nc2ccc(F)cc2/C1=N\OCCN1CCCCC1` [Compound 19, (2Z,3E)-5-fluoro-5′-nitro-3-((2-(piperidin-1-yl)ethoxy)imino)-[2,3′-biindolinylidene]-2′-one hydrochloride], the 50% growth inhibitory concentration (GI50) turned out to be 1.49 nM with MV4;11 cells and 804 nM with MDA-MB-231.

Consider `COc1ccc2c(c1)/C(=C1/Nc3ccccc3/C1=N\OCCN1CCN(C)CC1)C(=O)N2` [Compound 47, (2Z,3E)-5′-methoxy-3-((2-(4-methylpiperazin-1-yl)ethoxy)imino)-[2,3′-biindolinylidene]-2′-one dihydrochloride], for which the 50% growth inhibitory concentration (GI50) in the test with MV4;11 cells amounted to 7 nM.

On to `O=C1Nc2ccc(F)cc2/C1=C1/Nc2ccc(F)cc2/C1=N\OCCN1CCCCC1` [Compound 23, (2Z,3E)-5,5′-difluoro-3-((2-(piperidin-1-yl)ethoxy)imino)-[2,3′-biindolinylidene]-2′-one hydrochloride], for which the GI50 is 3.19 nM in the test on MV4;11 cells and > 1 nM in the test on MDA-MB-231.

`CN1CCN(CCO/N=C2/C(=C3/C(=O)Nc4ccc(F)cc43)Nc3ccc(F)cc32)CC1` [Compound 22, (2Z,3E)-5,5′-difluoro-3-((2-(4-methylpiperazin-1-yl)ethoxy)imino)-[2,3′-biindolinylidene]-2′-one dihydrochloride]: in the test with MDA-MB-231, the concentration for 50% growth inhibition (GI50) turned out to be 600 nM.

Take `O=C1Nc2ccccc2/C1=C1/Nc2ccccc2/C1=N\OCCN1CCCCC1` [Compound 30, (2Z,3E)-3-((2-(piperidin-1-yl)ethoxy)imino)-[2,3′-biindolinylidene]-2′-one hydrochloride]: the 50% growth inhibitory concentration (GI50) was 138 nM in the test with MV4;11 cells and > 1 nM with MDA-MB-231.

As to `CN1CCN(CCO/N=C2/C(=C3/C(=O)Nc4ccc([N+](=O)[O-])cc43)Nc3ccc(O)cc32)CC1` [Compound 14, (2Z,3E)-5-hydroxy-3-((2-(4-methylpiperazin-1-yl)ethoxy)imino)-5′-nitro-[2,3′-biindolinylidene]-2′-one dihydrochloride], the concentration for 50% growth inhibition (GI50) in the test on MV4;11 cells amounted to 50 nM; in the test on MDA-MB-231 it was 29.1 nM.

Consider `O=C1Nc2ccc(F)cc2/C1=C1/Nc2ccc(F)cc2/C1=N\OCCN1CCCC1` [Compound 24, (2Z,3E)-5,5′-difluoro-3-((2-(pyrrolidin-1-yl)ethoxy)imino)-[2,3′-biindolinylidene]-2′-one hydrochloride], for which the values for the GI50 in the test with MV4;11 cells and in the test with MDA-MB-231 were 634 nM and 347 nM, respectively.

`CN1CCN(CCO/N=C2/C(=C3/C(=O)Nc4ccc(Cl)cc43)Nc3ccccc32)CC1` [Compound 39, (2Z,3E)-5′-chloro-3-((2-(4-methylpiperazin-1-yl)ethoxy)imino)-[2,3′-biindolinylidene]-2′-one dihydrochloride]: the concentration for 50% growth inhibition (GI50) in the test on MV4;11 cells worked out at 37 nM.

Regarding `O=C1Nc2ccc([N+](=O)[O-])cc2/C1=C1/Nc2ccc(F)cc2/C1=N\OCCN1CCCC1` [Compound 20, (2Z,3E)-5-fluoro-5′-nitro-3-((2-(pyrrolidin-1-yl)ethoxy)imino)-[2,3′-biindolinylidene]-2′-one hydrochloride], the figures for the 50% growth inhibitory concentration (GI50) with MV4;11 cells and in the test on MDA-MB-231 were 447 nM and 144 nM, respectively.

With `O=C1Nc2ccccc2/C1=C1/Nc2ccccc2/C1=N\OCCN1CCCC1` [Compound 31, (2Z,3E)-3-((2-(pyrrolidin-1-yl)ethoxy)imino)-[2,3′-biindolinylidene]-2′-one hydrochloride], the GI50 in the test on MV4;11 cells stood at 104 nM; in the test with MDA-MB-231, 313 nM.

`COC(=O)c1ccc2c(c1)/C(=C1/Nc3ccccc3/C1=N\OCCN1CCOCC1)C(=O)N2` [Compound 6, Methyl (2Z,3E)-3-((2-morpholinoethoxy)imino)-2′-oxo-[2,3′-biindolinylidene]-5′-carboxylate hydrochloride] had an IC50 with MV4;11 cells of 53 nM. That is a double-digit nanomolar value.
